One data set deals with T1, 5-LOX enzyme (Homo sapiens, UniProt P09917).
T1 construct: purchased Cayman Chemical K980-100
T1 sequence (P09917 1-674): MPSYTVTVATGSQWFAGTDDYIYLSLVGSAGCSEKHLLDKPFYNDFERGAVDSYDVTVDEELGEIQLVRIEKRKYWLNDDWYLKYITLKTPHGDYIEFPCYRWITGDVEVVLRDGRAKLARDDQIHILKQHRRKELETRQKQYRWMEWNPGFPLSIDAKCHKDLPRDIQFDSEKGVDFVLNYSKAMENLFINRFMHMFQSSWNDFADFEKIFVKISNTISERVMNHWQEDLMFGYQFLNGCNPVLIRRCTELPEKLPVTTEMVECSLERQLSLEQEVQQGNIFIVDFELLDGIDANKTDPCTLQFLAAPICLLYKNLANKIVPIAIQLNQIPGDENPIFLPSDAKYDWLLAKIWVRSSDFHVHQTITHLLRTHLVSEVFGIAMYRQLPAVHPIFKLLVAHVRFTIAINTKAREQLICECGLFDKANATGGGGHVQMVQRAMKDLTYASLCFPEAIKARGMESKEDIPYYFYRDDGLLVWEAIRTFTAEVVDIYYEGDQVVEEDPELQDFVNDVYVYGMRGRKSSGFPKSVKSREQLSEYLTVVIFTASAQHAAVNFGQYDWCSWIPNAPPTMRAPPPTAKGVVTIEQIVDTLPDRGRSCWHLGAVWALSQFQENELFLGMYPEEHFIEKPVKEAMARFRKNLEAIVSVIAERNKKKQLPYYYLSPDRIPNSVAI
Kind of data set: 5-LOX inhibition, Human Lipoxygenase Inhibitor Screening Assay (EIA) kit. In kind it is biochemical. The procedure: The ability of the test compounds to inhibit the 5-LOX enzyme (IC50 value, μM) was detected using the Cayman Human Lipoxygenase Inhibitor Screening Assay (EIA) kit (catalog no. K980-100, Cayman Chemical). The IC50 values of test compounds were measured in µM according to the manufacturer’s instructions and reported method.

The subject of data set [1] is Escherichia coli (E. coli) (ATCC 25922). The experiment in a line: Disc diffusion antimicrobial screening, E. coli. It is filed as cell-based. The conditions noted are these: 100 µg/disc. The procedure: (§1) All compounds were screened for their antimicrobial activity at the Microbiology and Immunology Department, Faculty of Pharmacy, Beni-Suef University. The antimicrobial activity screening was carried out using the disc diffusion method, as described earlier, with some adjustments.
(§2) For each indicator microbe, a solution of half McFarland turbidity was prepared in sterile saline, followed by surface streaking of the strains on Mueller-Hinton agar with a sterile cotton swab. Then, sterile filter paper discs (5 mm diameter) preloaded with 100 µg of each compound were applied to the surface of the pre-inoculated plates. Then, the plates were chilled at 4 °C for 100 min before being incubated overnight at the proper temperature for microbial growth. Finally, the diameter of the inhibition zones around each disc was measured to evaluate the antimicrobial activity of the compounds. Ciprofloxacin was used as a standard antibacterial agent at a concentration of 20 µg/disc. Furthermore, DMSO-loaded discs were used as a negative control.

For data set [2], the system named is Salmonella enterica (ATCC 14028). Kind of data set: Disc diffusion antimicrobial screening, Salmonella enterica. The following applies: 100 µg/disc. In kind it is cell-based. The procedure: as §1, §2
In the next data set the target is T2, COX-2 (Ovis aries, UniProt P79208).
T2 sequence (P79208 17-603): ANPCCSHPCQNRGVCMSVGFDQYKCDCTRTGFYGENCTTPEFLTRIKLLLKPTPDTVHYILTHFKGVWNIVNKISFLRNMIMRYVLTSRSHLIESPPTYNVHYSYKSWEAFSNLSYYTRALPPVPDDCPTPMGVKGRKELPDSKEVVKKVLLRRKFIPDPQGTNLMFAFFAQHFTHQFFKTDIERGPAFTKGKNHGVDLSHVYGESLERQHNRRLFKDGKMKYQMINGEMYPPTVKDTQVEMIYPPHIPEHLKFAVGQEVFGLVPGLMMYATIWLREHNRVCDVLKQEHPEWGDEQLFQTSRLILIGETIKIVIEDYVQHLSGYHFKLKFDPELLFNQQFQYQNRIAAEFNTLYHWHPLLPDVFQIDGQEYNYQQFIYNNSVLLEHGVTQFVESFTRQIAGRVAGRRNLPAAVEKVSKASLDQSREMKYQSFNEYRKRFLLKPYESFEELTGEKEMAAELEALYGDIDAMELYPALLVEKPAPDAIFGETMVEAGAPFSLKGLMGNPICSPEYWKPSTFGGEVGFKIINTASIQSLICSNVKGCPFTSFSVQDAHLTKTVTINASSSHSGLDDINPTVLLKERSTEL
Kind of data set: COX-2 inhibition, enzyme immune assay (EIA) kit. It is filed as biochemical, ovine. The conditions noted are these: for SI: lab report, COX1/COX2.

Another data set has as its target T3, ovine COX-1 (Ovis aries, UniProt P05979).
T3 sequence (P05979 25-600): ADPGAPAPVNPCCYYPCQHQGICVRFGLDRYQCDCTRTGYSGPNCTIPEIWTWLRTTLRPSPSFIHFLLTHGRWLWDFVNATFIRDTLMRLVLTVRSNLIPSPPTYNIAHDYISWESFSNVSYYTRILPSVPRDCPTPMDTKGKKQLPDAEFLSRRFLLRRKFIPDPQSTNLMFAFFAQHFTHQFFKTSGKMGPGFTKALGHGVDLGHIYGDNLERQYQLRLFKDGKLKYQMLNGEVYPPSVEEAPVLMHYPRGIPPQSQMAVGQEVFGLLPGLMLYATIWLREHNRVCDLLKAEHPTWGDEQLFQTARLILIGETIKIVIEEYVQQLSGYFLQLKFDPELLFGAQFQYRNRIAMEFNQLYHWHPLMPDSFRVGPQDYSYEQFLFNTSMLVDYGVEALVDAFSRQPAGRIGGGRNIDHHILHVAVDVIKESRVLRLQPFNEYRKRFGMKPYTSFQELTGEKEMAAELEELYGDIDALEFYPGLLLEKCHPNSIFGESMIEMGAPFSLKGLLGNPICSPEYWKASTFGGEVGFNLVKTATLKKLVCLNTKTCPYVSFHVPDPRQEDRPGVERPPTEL
The experiment in a line: COX-1 inhibition, enzyme immune assay (EIA) kit.

A further data set in a line: DPPH free radical assay. It is filed as biochemical. The following applies: 540 nm, relative to Trolox. The procedure: (§3) Preparation of samples was occurred at the following concentrations: Samples 3a, 4a, 5b, 5d and 5e at final concentrations of 0.5 mg/ml in methanol: DMSO 9:1 v/v. Samples 4b and 4d at final concentrations 0.025 mg/ml in methanol: DMSO 9:1 v/v, sample 5a at final concentrations 0.25 mg/ml in methanol: DMSO 9:1 v/v, Sample 4c, 5c and 4e at final concentrations 0.05 mg/ml in methanol: DMSO 9:1 v/v, sample 3b at final concentration 0.75 mg/ml methanol: DMSO 9:1 v/v. A stock solution of 100 µM concentration of Trolox, a standard used in this experiment, was prepared in methanol from which seven concentrations were prepared, including 50, 40, 30, 20, 15, 10 and 5 µM.
The DPPH (2,2-diphenyl-1-picryl-hydrazyl-hydrate) free radical assay was carried out according to the method of Boly et al. 2016[39]. Briefly, freshly prepared DPPH reagent (100 µl, 0.1% in methanol) was added to 100 µl of the sample on 96 well plates (n = 6). The reaction was incubated at room temp for 30 min in the dark. After completion of the incubation time, the reduction in DPPH colour intensity was measured at 540 nm. Data obtained was represented as means ± SD, according to the following equation, percentage inhibition = [(Average absorbance of blank – average absorbance of the test)/(Average absorbance of blank)] *100. The results were recorded using a microplate reader, FluoStar Omega.
Microsoft Excel® was used to analyse the obtained results. The IC50 values were calculated using Graph pad Prism 6® by converting the concentrations to their logarithmic value and selecting the non-linear inhibitor regression equation (log (inhibitor) vs. normalised response – variable slope equation). The methods used and the final test report (R-SO7320) were obtained from Nawah Scientific.
(In general: DPPH is a stable violet radical that fades when it is reduced.)

The nature of data set [3]: Dissolution of DPPH samples in DMSO/methanol. It is filed as physicochemical. The conditions noted are these: DPPH sample preparation, methanol: DMSO 9:1 v/v. On the procedure: as §3
In data set [4] the test system is TNF-α in RAW264.7 macrophage cells. The experiment in a line: In vitro measurement of TNF-α in RAW264.7 macrophage cells (RT-qPCR). In kind it is cell-based. An excerpt: Both Lipopolysaccharides (LPS) and hispidin were purchased from Sigma (Sigma-Aldrich, St. Louis, MO, USA)[40]. The foetal bovine serum (FBS) and Dulbecco’s modified Eagle’s medium (DMEM) were purchased from Hyclone (General Electric Healthcare Life Sciences, Mississauga, Canada), penicillin streptomycin (P/S) was purchased from Solarbio (Solarbio life sciences, Beijing, P. R. China). Results of all in vitro anti-inflammatory screening were obtained from the confirmatory diagnostic unit, VACSERA, Egypt.
DMEM was used to cultivate the macrophage cells RAW264.7 (Shanghai BOGO Industrial Co., Ltd., Shanghai, China), and supplemented with 10% FBS and 1% P/S (100 U/ml and […], respectively). […] They were treated with various concentrations of hispidin, then with 1 μg/ml LPS for the indicated time.
PBS (1 ml/well) was used to wash the cells in 24-well plates. […] For the experiments, CL Buffer included MgCl2 (M1028; Sigma) or RNasin Plus RNase Inhibitor (N2615; Promega). Before use, both Bio-Rad SPR and CL buffer were equilibrated to room temperature. […] Carefully, the resulting lysates were collected and either analysed immediately or stored frozen ([…]).
RT-qPCR analysis was performed in one-step SYBR Green RT-qPCR. […] A CFX96 real-time PCR instrument (Bio-Rad) was used under the following protocol: 50uC for 10 min, 95uC for 5 min, 95uC for 10 s/61uC for 15 s/72uC for 30 s.
Total RNA purified from cells was used as an RT-qPCR quantification standard.
Background: Real-time PCR tracks product formation cycle by cycle.

Read-outs that look alike come from different tables or passages of the source.

As usually defined, the IC50 is the concentration needed to halve the response being measured. The term melting point denotes the temperature, or range, at which the solid turns liquid.

Text for ovine COX-1: Colorimetric enzyme immunoassay (EIA) kits were done to screen for the isozyme-specific inhibition.

Regarding `CCNC(=S)N/N=C/c1cn(S(C)(=O)=O)c2ccccc12` [Compound 4b, (E)-N-Ethyl-2{[1-(methylsulfonyl)-1H-indol-3yl]methylene}-hydrazinecarbothioamide], the melting point fell in the range of 240 to 242 °C. The compound also yielded an IC50 against 5-LOX enzyme of 29.2 ± 1.54 µM. This compound had a 5-LOX %inh at 5-LOX enzyme (conc 0.1 (μM)) of 4.17%. The compound further returned a 5-LOX %inh at 5-LOX enzyme (conc 1 (μM)) of 11.6%. Besides, the 5-LOX %inh on 5-LOX enzyme (conc 10 (μM)) is 30.5%. Further, on 5-LOX enzyme (conc 100 (μM)), the 5-LOX %inh is listed as 70.1%. In addition, in data set [1], the “antibacterial activity against E. coli” value is “selective antibacterial activity”. Besides, the “antibacterial activity against Salmonella enterica” value in [2] was “selective antibacterial activity”. Also, the SI at COX-2 turned out to be 0.236. Further, the IC50 at ovine COX-1 (IC50 COX-1) was found to be 28.5 ± 0.8 µM. Besides, the COX1 %inh on ovine COX-1 (conc 0.1 (μM)) is 3.74%. Also, the COX1 %inh on ovine COX-1 (conc 1 (μM)) was 8.96%. For the same compound, the COX1 %inh at ovine COX-1 (conc 10 (μM)) turned out to be 27.4%. The COX1 %inh on ovine COX-1 (conc 100 (μM)) is recorded as 73.3%. Also, the “DPPH test results (µM trolox equivalent/ 1mg sample ± SD)” value in the data set “DPPH free radical assay” (30 min) was 426.65 ± 28.02 µM trolox equivalent/ 1mg sample. Also, the DPPH anti-oxidant activity in “DPPH free radical assay” (values in text) turned out to be 426.65 µM Trolox equivalent/mg.
The compound `CCN1CC(=O)S/C1=N\N=C\c1cn(S(C)(=O)=O)c2ccccc12` [Compound 5b] yielded a melting point of 230 to 232 °C. At 5-LOX enzyme, the IC50 came to 47.8 ± 2.53 µM. The 5-LOX %inh on 5-LOX enzyme (conc 0.1 (μM)) was 1.82%. At 5-LOX enzyme (conc 1 (μM)), this compound yielded a 5-LOX %inh of 3.84%. On 5-LOX enzyme (conc 10 (μM)), this compound gave a 5-LOX %inh of 15.1%. In addition, the 5-LOX %inh on 5-LOX enzyme (conc 100 (μM)) is on record as 73.1%. The “S.I (IC50 COX-1/IC50 COX-2)” value at COX-2 (COX-2 selectivity index) turned out to be 0.25. The same compound showed an SI at COX-2 of 0.249. Moreover, the COX1 %inh on ovine COX-1 (conc 0.1 (μM)) is recorded as 7.23%. Further, the COX1 %inh on ovine COX-1 (conc 1 (μM)) is 15.2%. Besides, the COX1 %inh at ovine COX-1 (conc 10 (μM)) was 31.1%. At ovine COX-1 (conc 100 (μM)), this compound displayed a COX1 %inh of 73.6%. Besides, the IC50 at ovine COX-1 (read-out: IC50 COX-1) worked out at 22.2 ± 0.63 µM. Moreover, the “solubility of sample in DMSO and methanol” value in [3] is given as “didn’t dissolve in DMSO nor in methanol”. For the same compound, the TNF-α fold change in [4] is given as 0.18.

Source of the values: paper PMC9721424, “Novel N-methylsulfonyl-indole derivatives: biological activity and COX-2/5-LOX inhibitory effect with improved gastro protective profile and reduced cardio vascular risks” (Journal of Enzyme Inhibition and Medicinal Chemistry, 2022).
